Data reported in article PMC5077133, “Towards Development of Small Molecule Lipid II Inhibitors as Novel Antibiotics” (PLoS ONE, 2016).

Tests used:
A. baumanii ATCC 19606 = experiment: Antibacterial activity (MIC, broth dilution); format: cell-based, Acinetobacter baumanii; settings: CLSI, in µg/mL
Text: Staphylococcus aureus ATCC 29213, Escherichia coli ATCC 25922, Enterococcus faecalis ATCC 29212, Streptococcus pneumonia ATCC 49619 and Acinetobacter baumanii ATCC 19606 were obtained from Microbiologics (St. Cloud, MN). E. faecalis ATCC 51575, ATCC 51299 and REMEL C99707 and E. faecium ATCC 51559 (MDR), REMEL IH79985 and REMEL C110914 were generously provided by the Laboratory of Pathology, University of Maryland Baltimore School of Medicine. Unless stated otherwise, chemicals and reagents were purchased from Sigma.
(§1) Determination of the Minimal Inhibitory Concentrations (MIC) by dilution was carried out by broth dilution according to CLSI standards.

E. aerogenes ATCC 13048 = experiment: Antibacterial activity (MIC, broth dilution); format: cell-based; settings: CLSI
Method: as §1

E. cloacae ATCC 13047 = experiment: Antibacterial activity (MIC, broth dilution); format: cell-based; settings: CLSI
Method: as §1

E. faecium EF1509 (VRE) = experiment: Antibacterial activity (MIC, broth dilution); format: cell-based; settings: CLSI, in µg/mL
Method: as §1

E. faecium F118 (VRE) = experiment: Antibacterial activity (MIC, broth dilution); format: cell-based; settings: CLSI, in µg/mL
Method: as §1

[1] = system: K. pneumoniae NR-15410 (KPC); experiment: Antibacterial activity (MIC, broth dilution); format: cell-based; settings: CLSI
Method: as §1

[2] = system: K. pneumoniae NR-15411 (KPC); experiment: Antibacterial activity (MIC, broth dilution); format: cell-based; settings: CLSI
Method: as §1

P. aeruginosa ATCC 27853 = experiment: Antibacterial activity (MIC, broth dilution); format: cell-based; settings: CLSI
Method: as §1

P. aeruginosa PA01 = experiment: Antibacterial activity (MIC, broth dilution); format: cell-based; settings: CLSI
Method: as §1

P. aeruginosa X13273 = experiment: Antibacterial activity (MIC, broth dilution); format: cell-based; settings: CLSI, in µg/mL
Method: as §1

[3] = system: S. aureus HFH-30123 (MRSA); experiment: Antibacterial activity (MIC, broth dilution); format: cell-based; settings: CLSI
Method: as §1

S. aureus MRSA 1094 = experiment: Antibacterial activity (MIC, broth dilution); format: cell-based; settings: CLSI
Method: as §1

HeLa cells = experiment: Cytotoxicity against mammalian cells (MTS assay); format: cell-based
Method: The cytotoxicity concentration of antibacterial compounds that produces half maximal decrease in viability (CC50) against mammalian cells (HeLa, ATCC CCL-2.2) was determined as described. The effect of compounds on HeLa cell viability was assessed in triplicate by measuring the mitochondrial activity using MTS assays according to the manufacturer’s instructions (Cell Titer 96 proliferation assay, Promega). The cells were incubated for 72 hours in RPMI1640 medium containing the compounds at final concentrations ranging from 64 to 0.125 μg/ml. CC50 was determined using a standard curve of serially diluted untreated cells in each experiment.

[4] = Lipid II binding by Surface Plasmon Resonance; settings: SPR, immobilized 3-Lipid II, 25°C
Method: Short-chain water-soluble Lipid II containing a lipid tail of three isoprene units was generated and purified essentially as described. Typically, M. flavus vesicles (120 μmol lipid-Pi) were incubated together with 500 μmol UDP-GlcNAc, 500 μmol UDP-MurNAC-pentapeptide and 400 μmol farnesyl phosphate in 100 mM Tris-HCl pH 8.0, 5 mM MgCl2. The incubation lasted two hours at room temperature for 3-P. The synthesis of 3-Lipid II was followed using RP-8 reversed phase TLC (Merck) developed in 75% methanol. For purification, the membranes were removed by centrifugation at 40,000 x g and the supernatant was collected and loaded on a C18 HPLC column and eluted with a linear gradient from 50 mM ammonium bicarbonate to 100% methanol in 30 minutes. Farnesyl-Lipid II (3-Lipid II) eluted at approximately 60% methanol. Its identity was confirmed by mass spectroscopy. Surface Plasmon Resonance binding experiments were carried out on a BIAcore T100 system (BIAcore Inc., Piscataway, NY) at 25°C. The assay buffer was 10 mM HEPES, 150 mM NaCl, 0.05% surfactant P20, pH 7.4 (± 3 mM EDTA) supplemented with 10% DMSO. 3-Lipid II (50 RUs) was immobilized on CM5 sensor chips using the amine-coupling chemistry recommended by the manufacturer. For initial determination of binding, compounds were introduced into the flow-cells (30 μl/min) in the running buffer at 10 μM. Resonance signals were corrected for nonspecific binding by subtracting the background of the control flow-cell. After each analysis, the sensor chip surfaces were regenerated with 50 mM NaOH for 30 s at a flow rate 100 μl/min, and equilibrated with the buffer prior to next injection. For binding kinetics studies, binding isotherms were analyzed with manufacturer-supplied software for BIAcore T100.

| SMILES | Antibacterial activity (MIC) A. baumanii ATCC 19606 (A. baumanii ATCC 19606) | Antibacterial activity (MIC) E. aerogenes ATCC 13048 (E. aerogenes ATCC 13048) [µg/mL] | Antibacterial activity (MIC) E. cloacae ATCC 13047 (E. cloacae ATCC 13047) [µg/mL] | Antibacterial activity (MIC) E. faecium EF1509 (VRE) (E. faecium EF1509 (VRE)) | Antibacterial activity (MIC) E. faecium F118 (VRE) (E. faecium F118 (VRE)) | Antibacterial activity (MIC) K. pneumoniae NR-15410 (KPC) [1] [µg/mL] | Antibacterial activity (MIC) K. pneumoniae NR-15411 (KPC) [2] [µg/mL] | Antibacterial activity (MIC) P. aeruginosa ATCC 27853 (P. aeruginosa ATCC 27853) [µg/mL] | Antibacterial activity (MIC) P. aeruginosa PA01 (P. aeruginosa PA01) [µg/mL] | Antibacterial activity (MIC) P. aeruginosa X13273 (P. aeruginosa X13273) | Antibacterial activity (MIC) S. aureus HFH-30123 (MRSA) [3] [µg/mL] | Antibacterial activity (MIC) S. aureus MRSA 1094 (S. aureus MRSA 1094) [µg/mL] | Kd [4] [µM] | CC50% (72 h HeLa cells) (HeLa cells) |
| --- | --- | --- | --- | --- | --- | --- | --- | --- | --- | --- | --- | --- | --- | --- |
| Cc1ccc(-c2cc(/C=C/C=C/c3ccc(N(C)C)cc3)[o+]c(-c3ccc(C)cc3)c2)cc1.F[B-](F)(F)F [6jc51-2] | 32 | ≥ 64 | ≥ 64 | 0.5 | 2 | 64 | ≥ 64 | ≥ 64 | ≥ 64 | >=64 | 4 | 2 | 9.5 ± 2 | <.78125 |
| C(=C\c1c[nH]c2ccccc12)/c1cc(-c2ccccc2)cc(-c2ccccc2)[o+]1.F[B-](F)(F)F [Jc-49-1] | >=64 | ≥ 64 | ≥ 64 | 16 | 16 | ≥ 64 | ≥ 64 | ≥ 64 | ≥ 64 | >=64 | 8 | 8 | 0.17 ± 0.05 | 2.2 |
| CN(C)c1ccc(/C=C/C=C/c2cc(-c3ccc(Br)cc3)cc(-c3ccc(Br)cc3)[o+]2)cc1.F[B-](F)(F)F [6jc48-2] | >=64 | ≥ 64 | ≥ 64 | 4 | 16 | ≥ 64 | ≥ 64 | ≥ 64 | ≥ 64 | >=64 | ≥ 64 | ≥ 64 | 1.14 ± 0.3 | 60.51 |
| Cc1ccc(-c2cc(/C=C/c3c[nH]c4ccccc34)[o+]c(-c3ccc(C)c(C)c3)c2)cc1C.F[B-](F)(F)F [6jc-59-3] | >=64 | ≥ 64 | ≥ 64 | 5.657 | 8 | ≥ 64 | ≥ 64 | ≥ 64 | ≥ 64 | >=64 | 4 | 4 | 27.9 ± 3 | 1.35 |
| CN(C)c1ccc(/C=C/C=C/c2cc(-c3ccccc3)cc(-c3ccccc3)[o+]2)cc1.F[B-](F)(F)F [6jc43-1] | 45.25 | ≥ 64 | ≥ 64 | 4 | 4 | ≥ 64 | ≥ 64 | ≥ 64 | ≥ 64 | >=64 | 4 | 4 | 62 ± 6 | 0.93 |
| CN(C)c1ccc(/C=C/C=C/c2cc(-c3ccc(Cl)cc3)cc(-c3ccc(Cl)cc3)[o+]2)cc1.F[B-](F)(F)F [6jc43-2] | >=64 | ≥ 64 | ≥ 64 | 64 | >=64 | ≥ 64 | ≥ 64 | ≥ 64 | ≥ 64 | >=64 | ≥ 64 | ≥ 64 |  | >32 |

Second part, led by results:

| Antibacterial activity (MIC) A. baumanii ATCC 19606 (A. baumanii ATCC 19606) | Antibacterial activity (MIC) E. aerogenes ATCC 13048 (E. aerogenes ATCC 13048) [µg/mL] | Antibacterial activity (MIC) E. cloacae ATCC 13047 (E. cloacae ATCC 13047) [µg/mL] | Antibacterial activity (MIC) E. faecium EF1509 (VRE) (E. faecium EF1509 (VRE)) | Antibacterial activity (MIC) E. faecium F118 (VRE) (E. faecium F118 (VRE)) | Antibacterial activity (MIC) K. pneumoniae NR-15410 (KPC) [1] [µg/mL] | Antibacterial activity (MIC) K. pneumoniae NR-15411 (KPC) [2] [µg/mL] | Antibacterial activity (MIC) P. aeruginosa ATCC 27853 (P. aeruginosa ATCC 27853) [µg/mL] | Antibacterial activity (MIC) P. aeruginosa PA01 (P. aeruginosa PA01) [µg/mL] | Antibacterial activity (MIC) P. aeruginosa X13273 (P. aeruginosa X13273) | Antibacterial activity (MIC) S. aureus HFH-30123 (MRSA) [3] [µg/mL] | Antibacterial activity (MIC) S. aureus MRSA 1094 (S. aureus MRSA 1094) [µg/mL] | Kd [4] [µM] | SMILES | CC50% (72 h HeLa cells) (HeLa cells) |
| --- | --- | --- | --- | --- | --- | --- | --- | --- | --- | --- | --- | --- | --- | --- |
| 32 | ≥ 64 | ≥ 64 | 2 | 2 | ≥ 64 | ≥ 64 | ≥ 64 | ≥ 64 | >=64 | 2 | 2 | 16.1 ± 0.3 | CCc1ccc(-c2cc(/C=C/c3cc4c5c(c3)CCCN5CCC4)[o+]c(-c3ccc(CC)cc3)c2)cc1.F[B-](F)(F)F [6jc-69-1] | <.78125 |
| 32 | 64 | 64 | 2 | 4 | 64 | ≥ 64 | ≥ 64 | ≥ 64 | >=64 | 2 | 2 | 3.9 ± 0.4 | Cc1ccc(-c2cc(/C=C/c3cn(C)c4ccccc34)[o+]c(-c3ccc(C)cc3)c2)cc1.F[B-](F)(F)F [6jc65-2] | 0.94 |
| 8 | 64 | 64 | 0.5 | 2 | 16 | 64 |  | 64 | 45.25 | 2 | 1 | 9.2 ± 2 | Cc1ccc(-c2cc(/C=C/c3ccc(N(C)C)cc3)[o+]c(-c3ccc(C)cc3)c2)cc1.F[B-](F)(F)F [6jc51-1] | <.78125 |
| 16 | ≥ 64 | ≥ 64 | 4 | 5.66 | ≥ 64 | ≥ 64 | ≥ 64 | ≥ 64 | >=64 | 4 | 4 |  | CCc1ccc(-c2cc(/C=C/c3ccc(N(C)C)cc3)[o+]c(-c3ccc(CC)cc3)c2)cc1.F[B-](F)(F)F [6jc64-1] | <.78125 |
